In publication PMC12453121, “The combined effects of tick defensin persulcatusin with conventional antibiotics and antimicrobial proteins/peptides against Staphylococcus aureus” (Microbiology, 2025):
Values joined by “and” are separate entries in the source; they are usually repeats but may differ in a detail not shown here. Identical values can stand only once. Like-named read-outs stand apart in the source and are kept apart here. Where a SMILES comes first, the peptide text is derived from it. Bridges are numbered along the chain shown (N, C = ends). Where no end group is shown, it is not given here. [ ]: non-standard residue; d: D form. The star is where a group is joined. Ileψ(thiazoline)Cys = CC[C@H](C)[C@H](N)C1=N[C@H](C(=O)*)CS1; dOrn = NCCC[C@@H](N)C(=O)O

Key:
S. aureus ATCC 29213 [1] = conditions: for combined effect with IP (interpretation of FICI): named agent combined with IP, S. aureus ATCC 29213
Experimental: A checkerboard assay was performed to evaluate the combined effect of IP and conventional antibiotics using the broth microdilution method [3031] with a final inoculum concentration of 5×10^5 c.f.u. ml^−1. Bacterial cells cultured in MHB at 30 °C were suspended in MHB or cation-adjusted MHB (caMHB) for daptomycin treatment. Bacterial suspensions were dispensed into 96-well round polypropylene plates (Watson Bio Lab, Tokyo, Japan) at an inoculum concentration of 5.0×10^5 c.f.u. ml^−1. […] After incubation at 30 °C, the OD of each well was measured using a microplate reader (MTP-310; Corona Electric Co., Ltd., Ibaraki, Japan) at 660 nm (OD660). […] The fractional inhibitory concentration (FIC) was calculated as the MIC of drug A in combination with drug B divided by drug A alone. The FIC index (FICI) was calculated as the sum of each FIC, and the lowest FICI for each combination was interpreted as follows: FICI of <0.5 was defined as synergy, FICI of ≥0.5 but <1 was defined as partial synergy, FICI of ≥1 but <4 was defined as an additive effect or irrelevant and FICI of ≥4 was defined as antagonistic.

S. aureus [2] = conditions: IP on cell surface of S. aureus; cited from earlier work
S. aureus ATCC 29213 [3] = assay: Killing kinetic assay of IP or vancomycin in growth and non-growth states; assay type: cell-based, Staphylococcus aureus; conditions: 30 °C; for survival rate in the non-growth state: 1×10^8 c.f.u./ml, within 0.5 h then constant, % of c.f.u./ml at 0 h, triplicate; for survival rate in the non-growth state / time after which bactericidal activity / reduction of survival rate appeared in growth cells: IP 32 µg/ml or vancomycin 16 µg/ml (8×MIC); for time after which bactericidal activity / reduction of survival rate appeared in growth cells: growth state (TSB, LB Lennox or MHB)
Experimental: To study the antimicrobial effect of IP on S. aureus cells in both the growth and non-growth states, a killing kinetic assay of IP against S. aureus incubated in nutrient medium was performed as per the method described below or in the physiological buffer (PBS). Bacterial cells grown in TSB for ~24 h were adjusted to 1×10^8 c.f.u. ml^−1 in TSB, LB Lennox broth, MHB or PBS with 32 µg ml^−1 IP or 16 µg ml^−1 vancomycin, as control for antibiotic inhibited cell wall biosynthesis via interaction with lipid II, followed by incubation at 30 ℃ for a further 0.5, 1, 2, 4, 6 and 8 h. Bacterial cells were then serially diluted with sterile PBS, plated on TSA and incubated overnight at 37 °C. Colony counts were then determined, and c.f.u. ml^−1 was calculated.

S. aureus ATCC 29213 [4] = assay: Killing kinetic assay of daptomycin with or without IP pretreatment; assay type: cell-based, Staphylococcus aureus; conditions: c.f.u. count, triplicate
Experimental: To examine the influence of S. aureus pretreated with IP on the efficacy of daptomycin against bacterial cells, a killing kinetic assay based on a modification of Grein’s method was conducted. Bacterial cells grown in MHB to the exponential growth phase were incubated with 16 µg ml^−1 IP (8×MIC) at 37 °C. Since IP interacts with the cell surface of S. aureus, causing depolarization within 15 min after incubation, the duration of the pretreatment with IP was set to […]. The cells were then centrifuged (5,000 g, 5 min, 25 °C), and the supernatant was discarded to remove IP. Pretreated cells were resuspended in caMHB with or without 10 µg ml^−1 daptomycin (10×MIC) and then incubated at 37 °C for 0, 15, 30, 60 and 120 min. The bacterial cells were then serially diluted with sterile PBS, and each dilution was plated on TSA plates. The colonies were left to incubate at 37 °C and were subsequently counted.

S. aureus [5] = system: S. aureus; parameters: method as in PMID 22705395; conditions: cited from earlier work
[6] = named agent combined with IP (0.25–16 µg/ml), checkerboard broth microdilution in MHB (caMHB for daptomycin), 5×10^5 c.f.u./ml, 30 °C, no growth = OD660 <0.05, lowest FICI

Row | Compound | combined effect with IP (interpretation of FICI) (S. aureus ATCC 29213 [1]; checkerboard) | FICI (fractional inhibitory concentration index) (S. aureus ATCC 29213 [1]; [6]) | other results
1 | O=C(O)c1cn(C2CC2)c2cc(N3CCNCC3)c(F)cc2c1=O [ciprofloxacin, Ciprofloxacin] | Partial synergistic | – | –
2 | CC[C@H]1OC(=O)[C@H](C)[C@@H](O[C@H]2C[C@@](C)(OC)[C@@H](O)[C@H](C)O2)[C@H](C)[C@@H](O[C@@H]2O[C@H](C)C[C@H](N(C)C)[C@H]2O)[C@](C)(O)C[C@@H](C)C(=O)[C@H](C)[C@@H](O)[C@]1(C)O [erythromycin, Erythromycin] | additive or irrelevant | 2.0 | –
3 | Lysozyme | Partial synergistic | – | –
4 | O=C(N[C@H](CO)[C@H](O)c1ccc([N+](=O)[O-])cc1)C(Cl)Cl [chloramphenicol, Chloramphenicol] | additive or irrelevant | 2.0 | –
5 | CN(C)[C@@H]1C(O)=C(C(N)=O)C(=O)[C@@]2(O)C(O)=C3C(=O)c4c(O)cccc4[C@@](C)(O)[C@H]3C[C@@H]12 [tetracycline, Tetracycline] | Partial synergistic | 0.75 | –
6 | GFGCPFNQGACHRHCRSIGRRGGYCAGLFKQTCTCYSR (disulfide (positions not given here)) [IP, Persulcatusin, Tick defensin isolated from the hard tick Ixodes persulcatus, 38 aa, chemically synthesized, disulphide bridges formed] | – | – | time to depolarization after incubation (S. aureus [2]): ≤ 15 min; survival rate in the non-growth state (S. aureus ATCC 29213 [3]; PBS): ~ 70%; time to bactericidal activity in PBS (non-growth state) (S. aureus ATCC 29213 [3]; PBS, IP 8×MIC, survival constant thereafter): ≤ 0.5 h; time after which bactericidal activity / reduction of survival rate appeared in growth cells (S. aureus ATCC 29213 [3]): 2 h; effect of short-term IP pretreatment on killing by daptomycin (S. aureus ATCC 29213 [4]; IP 16 µg/ml (8×MIC) for 5 min at 37 °C, removed, then daptomycin 10 µg/ml in caMHB): reduced the bactericidal activity of daptomycin
7 | CC[C@H](C)[C@H](N)C1=N[C@H](C(=O)N[C@@H](CC(C)C)C(=O)N[C@H](CCC(=O)O)C(=O)N[C@H](C(=O)N[C@H]2CCCCNC(=O)[C@H](CC(N)=O)NC(=O)[C@@H](CC(=O)O)NC(=O)[C@H](Cc3cnc[nH]3)NC(=O)[C@@H](Cc3ccccc3)NC(=O)[C@H]([C@@H](C)CC)NC(=O)[C@@H](CCCN)NC2=O)[C@@H](C)CC)CS1 [bacitracin, Bacitracin] ({Ileψ(thiazoline)Cys}-L[dE]IK[dOrn]I[dF]H[dD]N; lactam 4-C (inferred); N-terminus assumed) | Partial synergistic | 0.50 | –
8 | Lysostaphin | Partial synergistic | 0.75 | –
9 | Nisin (ITSISLCTPGCKTGALMGCNMKTATCHCSIHVSK; also: lantibiotic: lanthionine rings and dehydro residues, not placed; UniProt P13068 24-57, looked up) | Partial synergistic | – | FICI (fractional inhibitory concentration index) (S. aureus ATCC 29213 [1]): 0.63; MIC in the presence of sublethal concentrations of IP compared with absence of IP (S. aureus ATCC 29213 [1]): higher
10 | CC1(C)S[C@@H]2[C@H](NC(=O)[C@H](N)c3ccccc3)C(=O)N2[C@H]1C(=O)O [ampicillin, Ampicillin] | synergistic | 0.375 and 0.38 | –
11 | CC[C@H](C)[C@H](NC(=O)[C@H](CCCCN)NC(=O)[C@H](CCC(=O)O)NC(=O)[C@H](CCCCN)NC(=O)[C@H](CO)NC(=O)[C@H](CCCCN)NC(=O)[C@H](CCCNC(=N)N)NC(=O)[C@H](Cc1ccccc1)NC(=O)[C@H](Cc1ccccc1)NC(=O)[C@H](CC(=O)O)NC(=O)CNC(=O)[C@H](CC(C)C)NC(=O)[C@@H](N)CC(C)C)C(=O)NCC(=O)N[C@@H](CCCCN)C(=O)N[C@@H](CCC(=O)O)C(=O)N[C@@H](Cc1ccccc1)C(=O)N[C@@H](CCCCN)C(=O)N[C@@H](CCCNC(=N)N)C(=O)N[C@H](C(=O)N[C@H](C(=O)N[C@@H](CCC(N)=O)C(=O)N[C@@H](CCCNC(=N)N)C(=O)N[C@H](C(=O)N[C@@H](CCCCN)C(=O)N[C@@H](CC(=O)O)C(=O)N[C@@H](Cc1ccccc1)C(=O)N[C@@H](CC(C)C)C(=O)N[C@@H](CCCNC(=N)N)C(=O)N[C@@H](CC(N)=O)C(=O)N[C@@H](CC(C)C)C(=O)N[C@H](C(=O)N1CCC[C@H]1C(=O)N[C@@H](CCCNC(=N)N)C(=O)N[C@H](C(=O)N[C@@H](CCC(=O)O)C(=O)N[C@@H](CO)C(=O)O)[C@@H](C)O)C(C)C)[C@@H](C)CC)C(C)C)[C@@H](C)CC [LL-37] | synergistic | 0.25 | –
12 | NC[C@H]1O[C@H](O[C@H]2[C@H](O)[C@@H](O[C@H]3O[C@H](CO)[C@@H](O)[C@H](N)[C@H]3O)[C@H](N)C[C@@H]2N)[C@H](O)[C@@H](O)[C@@H]1O [kanamycin, Kanamycin] | additive or irrelevant | 2.0 | –
13 | CN[C@H](CC(C)C)C(=O)N[C@H]1C(=O)N[C@@H](CC(N)=O)C(=O)N[C@H]2C(=O)N[C@H]3C(=O)N[C@H](C(=O)N[C@H](C(=O)O)c4cc(O)cc(O)c4-c4cc3ccc4O)[C@H](O)c3ccc(c(Cl)c3)Oc3cc2cc(c3O[C@@H]2O[C@H](CO)[C@@H](O)[C@H](O)[C@H]2O[C@H]2C[C@](C)(N)[C@H](O)[C@H](C)O2)Oc2ccc(cc2Cl)[C@H]1O [vancomycin, Vancomycin] | additive or irrelevant | – | FICI (fractional inhibitory concentration index) (S. aureus ATCC 29213 [1]): 2.0; survival rate in the non-growth state (S. aureus ATCC 29213 [3]; PBS): no reduction; time after which bactericidal activity / reduction of survival rate appeared in growth cells (S. aureus ATCC 29213 [3]): 8 h
14 | areucin-1: antimicrobial peptide isolated from the marine polychaete lugworm Arenicola marina (printed arenicin-1 in b7) (RWCVYAYVRVRGVLVRYRRCW; ends and bridges not checked; cysteine pairing not given here; UniProt Q5SC60 182-202, looked up) | – | – | FICI with chloramphenicol (S. aureus [5]; areucin-1 combined with chloramphenicol against S. aureus): 0.5; FICI with erythromycin (S. aureus [5]; areucin-1 combined with erythromycin against S. aureus): 0.375
15 | CCCCCCCCCC(=O)N[C@@H](Cc1c[nH]c2ccccc12)C(=O)N[C@H](CC(N)=O)C(=O)N[C@@H](CC(=O)O)C(=O)N[C@@H]1C(=O)NCC(=O)N[C@@H](CCCN)C(=O)N[C@@H](CC(=O)O)C(=O)N[C@H](C)C(=O)N[C@@H](CC(=O)O)C(=O)NCC(=O)N[C@H](CO)C(=O)N[C@@H]([C@H](C)CC(=O)O)C(=O)N[C@@H](CC(=O)c2ccccc2N)C(=O)O[C@@H]1C [daptomycin, Daptomycin] | additive, irrelevant or antagonistic | – | FICI (fractional inhibitory concentration index) (S. aureus ATCC 29213 [1]): exceeded 2.0; MIC in the presence of sublethal concentrations of IP compared with absence of IP (S. aureus ATCC 29213 [1]; IP 0.25 to 1 µg/ml for nisin, 0.25 to 4 µg/ml for daptomycin, checkerboard): higher; time to significant reduction in bacterial cells (bactericidal activity) (S. aureus ATCC 29213 [4]; daptomycin 10 µg/ml (10×MIC), caMHB, 37 °C, no pretreatment, P<0.05): ≤ 2 h
16 | Gentamycin | additive or irrelevant | 1.0 | –
17 | Cc1nnc(SCC2=C(C(=O)O)N3C(=O)[C@@H](NC(=O)Cn4cnnn4)[C@H]3SC2)s1 [cefazolin, Cefazolin] | Partial synergistic | 0.75 | –
